The record followed here is patent US8008506B2, “Indazole compounds” (priority 2008, dated 2011).

For assay [1], the target named is T1, human β2 adrenergic receptor (Homo sapiens, UniProt P07550).
T1 construct: expressed in transfected cells; host or cells: CHO (Chinese Hamster Ovary) cells, pcDNA3
Briefly: Test Example 3-B: human β2 adrenergic receptor agonist activity (method of Test Example 1-B). To be noted: for β2 receptor EC50: Table 2, Test Example 3-B; for Emax: read-out: β2 receptor I.A. It is filed as cell-based. Here is the method:
[Worded in the source for another target; this target is reported under the same test.] (§1) The measurement of human β3 adrenergic receptor agonist activity is carried out using CHO (Chinese Hamster Ovary) cells transfected with pcDNA3 (manufactured by Invitrogen, Inc.) to which human β3 gene has been inserted. […] This human β3 cDNA fragment is used as a probe, and the full length human β3 gene is obtained from a human genomic library (manufactured by Clontech Laboratories, Inc.). The above cells are cultured in Ham's F-12 medium containing 10% fetal bovine serum and 400 μg/ml geneticin (manufactured by Invitrogen, Inc.). These cells are seeded on a 96-well plate to a concentration of 2×10^4 cells/well, and after being cultured for about 20 hours, the cells are left to stand in 80 μL of serum-free Ham's F-12 medium for 15 minutes. A test compound is initially dissolved in DMSO, and then is diluted stepwise with Ham's F-12 containing 100 mmol/L HEPES and 1 mmol/L isobutylmethylxanthine. 20 μL of the dilution is added to the cells. After the cells are cultured for 30 minutes, the medium is removed. 0.3. ml of the Assay/lysis Buffer included in cAMP-Screen kit (manufactured by Applied Biosystems, Inc.) is added to the cells, and the cells are incubated at 37° C. for 30 minutes. The resulting cell lysate is subjected to quantification of cAMP with the cAMP-Screen kit. […] Measurement of Human β2 Adrenergic Receptor Agonist Activity

Assay [2] concerns the target T2, human α1A adrenergic receptor (Homo sapiens, UniProt P35348).
T2 construct: expressed in transfected cells; host or cells: HEK293 cells, pcDNA3.1(−), hygromycin B selection
T2 sequence (P35348 1-466): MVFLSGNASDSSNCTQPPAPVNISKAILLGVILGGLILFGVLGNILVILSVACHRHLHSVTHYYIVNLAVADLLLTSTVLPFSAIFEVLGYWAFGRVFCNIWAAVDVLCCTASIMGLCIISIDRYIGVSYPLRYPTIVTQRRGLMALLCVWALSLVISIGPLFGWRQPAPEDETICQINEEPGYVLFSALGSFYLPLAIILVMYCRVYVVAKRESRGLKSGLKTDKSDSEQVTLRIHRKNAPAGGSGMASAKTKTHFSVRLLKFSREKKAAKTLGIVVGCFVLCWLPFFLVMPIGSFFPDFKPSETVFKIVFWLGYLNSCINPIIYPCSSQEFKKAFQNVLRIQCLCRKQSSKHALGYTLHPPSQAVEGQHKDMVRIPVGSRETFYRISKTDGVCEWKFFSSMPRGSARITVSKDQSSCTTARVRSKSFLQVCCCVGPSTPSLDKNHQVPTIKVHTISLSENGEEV
Briefly: Test Example 4: human α1A adrenergic receptor agonist activity (Ca flux, Fura-2, transfected HEK293 cells). The assay is classed as cell-based. To be noted: for Emax: HEK293, read-out: α1A receptor I.A.; for α1A receptor I.A.: maximum response to norepinephrine taken as 100%. Here is the method:
Measurement of Human α1A Adrenergic Receptor Agonist Activity
The measurement of human α1A adrenergic receptor agonist activity is carried out using HEK293 cells transfected with pcDNA3.1(−) (manufactured by Invitrogen, Inc.) to which human α1A gene has been inserted. These cells are cultured in DMEM medium containing 10% fetal bovine serum, 400 μg/ml hygromycin B (manufactured by Gibco BRL), 100 U/ml penicillin and 100 μg/ml streptomycin. […] The cells are loaded in a CO2 incubator for 30 minutes, and then are washed twice with the Assay Buffer to remove excess Fura-2AM. The cells are centrifuged, and then are prepared into a solution at 5×10^6 cells/ml with the Assay Buffer. Subsequently, the cells are dispensed on a 96-well plate (manufactured by Corning, Inc.) at a volume of 80 μl/well, and the plate is used as a cell plate. […] Subsequently, measurement of fluorescence intensity (excitation wavelength 340 nm and 380 nm, measurement wavelength 500 nm) is initiated at an interval of 2 seconds. After making measurements for about 30 seconds, 20 μl of the test sample from the sample plate is added to the cell plate, and measurements are further continued for 270 seconds. The Ca flux resulting from the test compound is calculated utilizing the difference between the maximum value of fluorescence intensity ratio at the wavelengths 340 nm and 380 nm after the addition of the test compound, and the fluorescence intensity ratio before the addition of the test compound, as the peak height.

The target of assay [3] is T3, human β1 adrenergic receptor (Homo sapiens, UniProt P08588).
T3 construct: expressed in transfected cells; host or cells: CHO (Chinese Hamster Ovary) cells, pcDNA3
T3 sequence (P08588 whole entry): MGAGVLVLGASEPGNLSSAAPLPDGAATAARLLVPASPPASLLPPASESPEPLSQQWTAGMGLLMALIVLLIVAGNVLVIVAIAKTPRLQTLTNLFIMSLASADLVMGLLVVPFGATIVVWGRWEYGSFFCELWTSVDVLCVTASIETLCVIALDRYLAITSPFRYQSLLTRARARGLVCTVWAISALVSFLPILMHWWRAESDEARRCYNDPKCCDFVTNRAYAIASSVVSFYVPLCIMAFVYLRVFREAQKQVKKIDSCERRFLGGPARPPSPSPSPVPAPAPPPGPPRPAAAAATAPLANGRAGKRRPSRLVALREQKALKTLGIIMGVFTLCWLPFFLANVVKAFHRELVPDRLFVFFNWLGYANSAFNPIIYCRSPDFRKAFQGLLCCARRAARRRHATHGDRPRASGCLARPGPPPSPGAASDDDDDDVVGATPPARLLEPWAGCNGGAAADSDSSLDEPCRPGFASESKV
Briefly: Test Example 2-B: human β1 adrenergic receptor agonist activity (method of Test Example 1-B). It is filed as cell-based. To be noted: for β1 receptor EC50: Table 2, Test Example 2-B; for Emax: read-out: β1 receptor I.A. Here is the method:
as §1, with “β1” for “β2”

Assay [4] deals with urinary bladder smooth muscle isolated from common marmoset. Kind of assay: Test Example 7: relaxant activity on urinary bladder smooth muscle isolated from common marmoset. To be noted: KCl 40 mmol/L contraction, papaverine 10^−4 mol/L relaxation taken as 100%. Here is the method:
Common marmosets are (CLEA Japan, Inc.) exsanguinated to death, and then are subjected to laparotomy to isolate the urinary bladder therefrom. […] The strips are applied a resting tension of 1 g, and are equilibrated for at least 30 minutes. After the resting tension of the strips have been equilibrated, KCl at a final concentration of 40 mmol/L is repeatedly added to the organ bath, and it is confirmed that contraction due to KCl becomes almost constant. […] When the relaxation response at the maximum concentration of the test compound is completed, papaverine at a final concentration of 10^−4 mol/L is added, and the maximum relaxation response of each strip is determined.

[5] abbreviates: Table 2, Test Example 4, read-out: α1A receptor EC50.
The mark [6] stands for this setting: Table 1, Test Example 4, read-out: α1A receptor EC50.

The structures appear in SMILES notation. Read-outs that look alike come from different tables or passages of the source.

T1 sequence (P07550 whole entry): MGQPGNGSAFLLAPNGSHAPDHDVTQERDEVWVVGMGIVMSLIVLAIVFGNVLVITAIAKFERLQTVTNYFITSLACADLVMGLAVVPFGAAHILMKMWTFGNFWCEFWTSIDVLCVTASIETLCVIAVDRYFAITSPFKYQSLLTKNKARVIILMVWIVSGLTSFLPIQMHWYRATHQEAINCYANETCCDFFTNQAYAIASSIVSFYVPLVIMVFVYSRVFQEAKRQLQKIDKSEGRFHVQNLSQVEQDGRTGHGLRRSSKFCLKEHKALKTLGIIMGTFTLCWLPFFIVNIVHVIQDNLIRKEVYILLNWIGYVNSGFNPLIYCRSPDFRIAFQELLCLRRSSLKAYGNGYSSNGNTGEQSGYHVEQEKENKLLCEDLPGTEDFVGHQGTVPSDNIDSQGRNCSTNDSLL

One may read the EC50 as the concentration at which the effect is half-maximal. For `CCc1n[nH]c2cc(OCCNC[C@H](O)c3ccc(F)c(NS(C)(=O)=O)c3)ccc12` [Example 8, (R)-N-(5-(2-(2-(3-ethylindazol-6-yloxy)ethylamino)-1-hydroxyethyl)-2-fluorophenyl)methanesulfonamide], in assay [1], the “β2 receptor EC50” value is reported as “a)”. The Emax in assay [1] worked out at 11%; in assay [2] it was 5%; in assay [3], 15%. Besides, in assay [2] (setting [5]), the EC50 is over 2000 nM. In assay [3], the “β1 receptor EC50” value is given as “a)”.

For `CCCc1n[nH]c2cc(OCCNC[C@H](O)c3cccc(NS(C)(=O)=O)c3)ccc12` [Example 3, (R)-N-(3-(1-hydroxy-2-(2-(3-propylindazol-6-yloxy)ethylamino)ethyl)phenyl)methanesulfonamide], in assay [1], the “β2 receptor EC50” value is “a)”. The Emax was 2% in assay [1], 0% in assay [2] and 1% in assay [3]. The EC50 in assay [2] (setting [6]) and in assay [2] (setting [5]) was over 2000 nM in each case. In assay [2] (Table 2), the “α1A receptor I.A.” value stood at 0%. Also, in assay [3], the “β1 receptor EC50” value is given as “a)”.

As to `CCc1n[nH]c2cc(OCCNC[C@H](O)c3cccc(NS(C)(=O)=O)c3)ccc12` [Example 2, (R)-N-(3-(1-hydroxy-2-(2-(3-ethylindazol-6-yloxy)ethylamino)ethyl)phenyl)methanesulfonamide], in assay [4], the “relaxant activity (%) 10^−4 M” value worked out at 57.8% and the “relaxant activity (%) 10^−5 M” value was 43.4%. Moreover, in assay [1], the “β2 receptor EC50” value is on record as “a)” and the Emax was determined as 4.3%. Also, in assay [2], a half-maximal response (EC50) required 855 nM and the Emax worked out at 24%. For the same compound, in assay [2] (Table 2), the “α1A receptor I.A.” value was 24%. For the same compound, the EC50 in assay [2] (read-out: α1A receptor EC50, Table 2, Test Example 4) is 855 nM. Moreover, in assay [3], the “β1 receptor EC50” value is “a)” and the Emax was 5.8%.

Consider `COc1n[nH]c2cc(OCCNC[C@H](O)c3cccc(NS(=O)(=O)c4ccccc4)c3)ccc12` [Example 16, (R)-N-(3-(1-hydroxy-2-(2-(3-methoxyindazol-6-yloxy)ethylamino)ethyl)phenyl)benzenesulfonamide], for which, in assay [1], the “β2 receptor EC50” value is on record as “a)”. Further, the Emax in assay [1] was 3%; in assay [2], 0%; in assay [3], 7%. In assay [2] (setting [5]), the EC50 is over 2000 nM. Moreover, the “β1 receptor EC50” value in assay [3] is recorded as “a)”.

For `COCc1n[nH]c2cc(OCCNC[C@H](O)c3cccc(NS(C)(=O)=O)c3)ccc12` [Example 6, (R)-N-(3-(1-hydroxy-2-(2-(3-methoxymethylindazol-6-yloxy)ethylamino)ethyl)phenyl)methanesulfonamide], in assay [4], the “relaxant activity (%) 10^−4 M” value was 42.6% and the “relaxant activity (%) 10^−5 M” value worked out at 35.3%. The Emax in assay [2] is 20%. The EC50 in assay [2] (setting [6]) was over 2000 nM.

`CC(C)c1n[nH]c2cc(OCCNC[C@H](O)c3cccc(NS(C)(=O)=O)c3)ccc12` [Example 1, (R)-N-(3-(1-hydroxy-2-(2-(3-isopropylindazol-6-yloxy)ethylamino)ethyl)phenyl)methanesulfonamide]: in assay [4], the “relaxant activity (%) 10^−4 M” value worked out at 68.6% and the “relaxant activity (%) 10^−5 M” value worked out at 49.9%. In addition, in assay [1], the “β2 receptor EC50” value was “a)” and the Emax was determined as 6.7%. In assay [2], the EC50 is over 2000 nM and the Emax was 8%. Moreover, in assay [3], the “β1 receptor EC50” value is listed as “a)” and the Emax was determined as 12%.

In the case of `CCc1n[nH]c2cc(OCCNC[C@H](O)c3ccc(Cl)c(NS(C)(=O)=O)c3)ccc12` [Example 9, (R)-N-(2-chloro-5-(2-(2-(3-ethylindazol-6-yloxy)ethylamino)-1-hydroxyethyl)phenyl)methanesulfonamide], in assay [1], the “β2 receptor EC50” value is on record as “a)” and the Emax is 8%. Moreover, in assay [2], the Emax was 11%. In addition, in assay [2] (setting [5]), the EC50 is over 2000 nM. In assay [3], the “β1 receptor EC50” value is given as “a)” and the Emax came to 18%.

As for `CS(=O)(=O)Nc1cc([C@@H](O)CNCCOc2ccc3c(C(F)(F)F)n[nH]c3c2)ccc1Cl` [Example 11, (R)-N-(2-chloro-5-(1-hydroxy-2-(2-(3-(trifluoromethyl)indazol-6-yloxy)ethylamino)ethyl)phenyl)methanesulfonamide], in assay [4], the “relaxant activity (%) 10^−4 M” value is 39.2% and the “relaxant activity (%) 10^−5 M” value turned out to be 20.1%. In assay [1], the “β2 receptor EC50” value is “a)” and the Emax is 5%. In assay [2], the Emax amounted to 0%. The half-maximal effective concentration (EC50) in assay [2] (setting [5]) was over 2000 nM. Further, in assay [3], the “β1 receptor EC50” value is reported as “a)” and the Emax was 22%.

Turning to `CN(C)C(=O)CCc1n[nH]c2cc(OCCNC[C@H](O)c3cccc(NS(C)(=O)=O)c3)ccc12` [Example 5, (R)-3-(6-(2-(2-hydroxy-2-(3-(methylsulfonamido)phenyl)ethylamino)ethoxy)-indazol-3-yl)-N,N-dimethylpropanamide], in assay [4], the “relaxant activity (%) 10^−4 M” value is recorded as 56.3% and the “relaxant activity (%) 10^−5 M” value is 50.9%. Further, in assay [1], the “β2 receptor EC50” value is reported as “a)” and the Emax was 5.4%. Moreover, the Emax in assay [2] is 47%. Moreover, in assay [2] (setting [6]), the EC50 amounted to 836 nM. The “α1A receptor I.A.” value in assay [2] (Table 2) was found to be 47%.
